Data as given in US20020137929A1, “1 - (3-heterocyclylphenyl) isothiourea, -isourea, -guanidine and -amidine herbicidal agents” (Intellectual Property Department, BASF Aktiengesellschaft, priority 1998, published 2002).

Assays:
CASOB (Sicklepod) = assay: Preemergence herbicidal evaluation; format: in vivo, Cassia obtusifolia; settings: rated 4-5 weeks after treatment, rating scale 0-9
How it was run: (§1)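 Greenhouse preemergence test: seed-soil mix sown on ~1 inch soil; aqueous acetone spray at equivalent of ~0.0156–0.500 kg/ha; greenhouse-held and watered; scored 0–9 visually at 4–5 weeks.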

[1] = test system: IPOHE (Morningglory, Ivyleaf); assay: Preemergence herbicidal evaluation; format: in vivo, Ipomoea hederacea; settings: rated 4-5 weeks after treatment, rating scale 0-9
How it was run: as §1

[2] = test system: TRZAWR (Wheat, Winter, cv Riband); assay: Postemergence herbicidal evaluation; format: in vivo, Triticum aestivum; settings: postemergence
How it was run: (§2)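 Two-week seedlings sprayed postemergence at 40 psi; formulation: 1:1 acetone/water, 0.5% TWEEN 20; application ≈0.0156–0.500 kg/ha. Greenhouse grow-out, then 0–9 visual scoring at 4–5 weeks.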

[3] = test system: GLXMAW (Soybean, Williams); assay: Postemergence herbicidal evaluation; format: in vivo, Glycine max, (L.) Merr. cv Williams; settings: postemergence
How it was run: as §2

SETVI (Foxtail, Green) = assay: Postemergence herbicidal evaluation; format: in vivo, Setaria viridis; settings: postemergence
How it was run: as §2

GALAP (Galium) = assay: Preemergence herbicidal evaluation; format: in vivo, Galium aparine; settings: rated 4-5 weeks after treatment, rating scale 0-9
How it was run: as §1

ABUTH (Velvetleaf) = assay: Postemergence herbicidal evaluation; format: in vivo, Abutilon theophrasti; settings: postemergence
How it was run: as §2

ZEAMX (Corn, Field) = assay: Preemergence herbicidal evaluation; format: in vivo, Zea mays; settings: rated 4-5 weeks after treatment, rating scale 0-9
How it was run: as §1

ECHCG (Barnyardgrass) [4] = assay: Postemergence herbicidal evaluation; format: in vivo, Echinochloa crus-galli; settings: postemergence
How it was run: as §2

[5] = test system: CHEAL (Lambsquarters, Common); assay: Preemergence herbicidal evaluation; format: in vivo, Chenopodium album; settings: rated 4-5 weeks after treatment, rating scale 0-9
How it was run: as §1

[6] = test system: IPOHE (Morningglory, Ivyleaf); assay: Postemergence herbicidal evaluation; format: in vivo, Ipomoea hederacea; settings: postemergence
How it was run: as §2

ECHCG (Barnyardgrass) [7] = assay: Preemergence herbicidal evaluation; format: in vivo, Echinochloa crus-galli; settings: rated 4-5 weeks after treatment, rating scale 0-9
How it was run: as §1

AMBEL (Ragweed, Common) = assay: Postemergence herbicidal evaluation; format: in vivo, Ambrosia artemisifolia; settings: postemergence
How it was run: as §2

Structure (SMILES): CCOC(=O)CN1C(=O)C(Br)SC1=Nc1cc(-n2c(=O)cc(C(F)(F)F)n(C)c2=O)c(F)cc1Cl (stereo not drawn) [Compound 153, Ethyl 5-bromo-2-[{2-chloro-5-[3,6-dihydro-3-methyl-2,6-dioxo-4-(trifluoromethyl)-1(2H)-pyrimidinyl]-4-fluorophenyl}imino}-4-oxo-3-thiazolidineacetate]
- Preemergence herbicidal rating CASOB (CASOB (Sicklepod); rate 0.1250 kg/ha): 0.0
- Preemergence herbicidal rating CASOB (CASOB (Sicklepod); rate 0.2500 kg/ha): 0.0
- Preemergence herbicidal rating IPOHE ([1]; rate 0.1250 kg/ha): 1.0
- Preemergence herbicidal rating IPOHE ([1]; rate 0.2500 kg/ha): 0.0
- Herbicidal rating TRZAWR ([2]; rate 0.0156 kg/ha): 2.0
- Herbicidal rating TRZAWR ([2]; rate 0.0313 kg/ha): 2.0
- Herbicidal rating TRZAWR ([2]; rate 0.0625 kg/ha): 3.0
- Herbicidal rating GLXMAW ([3]; rate 0.0156 kg/ha): 3.5
- Herbicidal rating GLXMAW ([3]; rate 0.0313 kg/ha): 4.0
- Herbicidal rating GLXMAW ([3]; rate 0.0625 kg/ha): 4.0
- Herbicidal rating SETVI (SETVI (Foxtail, Green); rate 0.0156 kg/ha): 0.0
- Herbicidal rating SETVI (SETVI (Foxtail, Green); rate 0.0313 kg/ha): 0.0
- Herbicidal rating SETVI (SETVI (Foxtail, Green); rate 0.0625 kg/ha): 0.0
- Preemergence herbicidal rating GALAP (GALAP (Galium); rate 0.1250 kg/ha): 0.0
- Preemergence herbicidal rating GALAP (GALAP (Galium); rate 0.2500 kg/ha): 1.0
- Herbicidal rating ABUTH (ABUTH (Velvetleaf); rate 0.0156 kg/ha): 1.0
- Herbicidal rating ABUTH (ABUTH (Velvetleaf); rate 0.0313 kg/ha): 1.0
- Herbicidal rating ABUTH (ABUTH (Velvetleaf); rate 0.0625 kg/ha): 5.0
- Preemergence herbicidal rating ZEAMX (ZEAMX (Corn, Field); rate 0.1250 kg/ha): 0.0
- Preemergence herbicidal rating ZEAMX (ZEAMX (Corn, Field); rate 0.2500 kg/ha): 0.0
- Herbicidal rating ECHCG (ECHCG (Barnyardgrass) [4]; rate 0.0156 kg/ha): 0.0
- Herbicidal rating ECHCG (ECHCG (Barnyardgrass) [4]; rate 0.0313 kg/ha): 0.0
- Herbicidal rating ECHCG (ECHCG (Barnyardgrass) [4]; rate 0.0625 kg/ha): 1.0
- Preemergence herbicidal rating CHEAL ([5]; rate 0.1250 kg/ha): 1.0
- Preemergence herbicidal rating CHEAL ([5]; rate 0.2500 kg/ha): 7.0
- Herbicidal rating IPOHE ([6]; rate 0.0156 kg/ha): 4.0
- Herbicidal rating IPOHE ([6]; rate 0.0313 kg/ha): 6.0
- Herbicidal rating IPOHE ([6]; rate 0.0625 kg/ha): 9.0
- Preemergence herbicidal rating ECHCG (ECHCG (Barnyardgrass) [7]; rate 0.1250 kg/ha): 0.0
- Preemergence herbicidal rating ECHCG (ECHCG (Barnyardgrass) [7]; rate 0.2500 kg/ha): 0.0
- Herbicidal rating AMBEL (AMBEL (Ragweed, Common); rate 0.0156 kg/ha): 0.0
- Herbicidal rating AMBEL (AMBEL (Ragweed, Common); rate 0.0313 kg/ha): 1.0
- Herbicidal rating AMBEL (AMBEL (Ragweed, Common); rate 0.0625 kg/ha): 1.0

Structure (SMILES): C=C1SC(=Nc2cc(-n3c(=O)cc(C(F)(F)F)n(C)c3=O)c(F)cc2Cl)N(CC(=O)OCC)C1=O [Compound 154]
- Preemergence herbicidal rating CASOB (CASOB (Sicklepod); rate 0.0156 kg/ha): 0.0
- Preemergence herbicidal rating CASOB (CASOB (Sicklepod); rate 0.0313 kg/ha): 0.0
- Preemergence herbicidal rating CASOB (CASOB (Sicklepod); rate 0.0625 kg/ha): 9.0
- Preemergence herbicidal rating CASOB (CASOB (Sicklepod); rate 0.1250 kg/ha): 9.0
- Preemergence herbicidal rating CASOB (CASOB (Sicklepod); rate 0.2500 kg/ha): 9.0
- Preemergence herbicidal rating IPOHE ([1]; rate 0.0156 kg/ha): 0.0
- Preemergence herbicidal rating IPOHE ([1]; rate 0.0313 kg/ha): 9.0
- Preemergence herbicidal rating IPOHE ([1]; rate 0.0625 kg/ha): 9.0
- Preemergence herbicidal rating IPOHE ([1]; rate 0.1250 kg/ha): 9.0
- Preemergence herbicidal rating IPOHE ([1]; rate 0.2500 kg/ha): 9.0
- Herbicidal rating TRZAWR ([2]; rate 0.0156 kg/ha): 3.5
- Herbicidal rating TRZAWR ([2]; rate 0.0313 kg/ha): 3.5
- Herbicidal rating TRZAWR ([2]; rate 0.0625 kg/ha): 4.0
- Herbicidal rating GLXMAW ([3]; rate 0.0156 kg/ha): 5.5
- Herbicidal rating GLXMAW ([3]; rate 0.0313 kg/ha): 6.0
- Herbicidal rating GLXMAW ([3]; rate 0.0625 kg/ha): 7.5
- Herbicidal rating SETVI (SETVI (Foxtail, Green); rate 0.0156 kg/ha): 0.0
- Herbicidal rating SETVI (SETVI (Foxtail, Green); rate 0.0313 kg/ha): 0.0
- Herbicidal rating SETVI (SETVI (Foxtail, Green); rate 0.0625 kg/ha): 5.0
- Preemergence herbicidal rating GALAP (GALAP (Galium); rate 0.0156 kg/ha): 0.0
- Preemergence herbicidal rating GALAP (GALAP (Galium); rate 0.0313 kg/ha): 0.0
- Preemergence herbicidal rating GALAP (GALAP (Galium); rate 0.0625 kg/ha): 4.0
- Preemergence herbicidal rating GALAP (GALAP (Galium); rate 0.1250 kg/ha): 9.0
- Preemergence herbicidal rating GALAP (GALAP (Galium); rate 0.2500 kg/ha): 9.0
- Herbicidal rating ABUTH (ABUTH (Velvetleaf); rate 0.0156 kg/ha): 9.0
- Herbicidal rating ABUTH (ABUTH (Velvetleaf); rate 0.0313 kg/ha): 9.0
- Herbicidal rating ABUTH (ABUTH (Velvetleaf); rate 0.0625 kg/ha): 9.0
- Preemergence herbicidal rating ZEAMX (ZEAMX (Corn, Field); rate 0.0156 kg/ha): 5.0
- Preemergence herbicidal rating ZEAMX (ZEAMX (Corn, Field); rate 0.0313 kg/ha): 7.0
- Preemergence herbicidal rating ZEAMX (ZEAMX (Corn, Field); rate 0.0625 kg/ha): 8.0
- Preemergence herbicidal rating ZEAMX (ZEAMX (Corn, Field); rate 0.1250 kg/ha): 9.0
- Preemergence herbicidal rating ZEAMX (ZEAMX (Corn, Field); rate 0.2500 kg/ha): 9.0
- Herbicidal rating ECHCG (ECHCG (Barnyardgrass) [4]; rate 0.0156 kg/ha): 0.0
- Herbicidal rating ECHCG (ECHCG (Barnyardgrass) [4]; rate 0.0313 kg/ha): 0.0
- Herbicidal rating ECHCG (ECHCG (Barnyardgrass) [4]; rate 0.0625 kg/ha): 0.0
- Preemergence herbicidal rating CHEAL ([5]; rate 0.0156 kg/ha): 9.0
- Preemergence herbicidal rating CHEAL ([5]; rate 0.0313 kg/ha): 9.0
- Preemergence herbicidal rating CHEAL ([5]; rate 0.0625 kg/ha): 9.0
- Preemergence herbicidal rating CHEAL ([5]; rate 0.1250 kg/ha): 9.0
- Preemergence herbicidal rating CHEAL ([5]; rate 0.2500 kg/ha): 9.0
- Herbicidal rating IPOHE ([6]; rate 0.0156 kg/ha): 9.0
- Herbicidal rating IPOHE ([6]; rate 0.0313 kg/ha): 9.0
- Herbicidal rating IPOHE ([6]; rate 0.0625 kg/ha): 9.0
- Preemergence herbicidal rating ECHCG (ECHCG (Barnyardgrass) [7]; rate 0.0156 kg/ha): 0.0
- Preemergence herbicidal rating ECHCG (ECHCG (Barnyardgrass) [7]; rate 0.0313 kg/ha): 4.0
- Preemergence herbicidal rating ECHCG (ECHCG (Barnyardgrass) [7]; rate 0.0625 kg/ha): 9.0
- Preemergence herbicidal rating ECHCG (ECHCG (Barnyardgrass) [7]; rate 0.1250 kg/ha): 9.0
- Preemergence herbicidal rating ECHCG (ECHCG (Barnyardgrass) [7]; rate 0.2500 kg/ha): 9.0
- Herbicidal rating AMBEL (AMBEL (Ragweed, Common); rate 0.0156 kg/ha): 3.0
- Herbicidal rating AMBEL (AMBEL (Ragweed, Common); rate 0.0313 kg/ha): 9.0
- Herbicidal rating AMBEL (AMBEL (Ragweed, Common); rate 0.0625 kg/ha): 9.0
